Experimental data: patent US11497212B2, “Substituted thiophenyl uracils, salts thereof and the use thereof as herbicidal agents” (Syngenta Crop Protection AG, priority 2017, dated 2022)

How the values were obtained:
Format in all cases: in vivo
Stellaria media [1] = test: Herbicidal action pre-emergence (greenhouse pot trial); details: application rate 320 g/ha, scored after about 3 weeks
In short: (§1)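 Pre-emergence soil-surface spray, 320 g/ha or lower, WP/EC formulations in water with 0.5% additive, 600 L/ha. Greenhouse, ~3 wk. Visual % efficacy vs untreated controls (100% = plants dead, 0% = like control).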

Echinochloa crus-galli [2] = test: as above; details: application rate 320 g/ha, scored after about 3 weeks
In short: as §1

Avena fatua [3] = test: as above; details: application rate 320 g/ha
In short: as §1

Alopecurus myosuroides [4] = test: as above; details: application rate 320 g/ha, scored after about 3 weeks
In short: as §1

Matricaria inodora [5] = test: as above; details: scored after about 3 weeks
In short: as §1

Pharbitis purpurea [6] = test: as above; details: application rate 320 g/ha
In short: as §1

Viola tricolor [7] = test: as above; details: application rate 320 g/ha, scored after about 3 weeks
In short: as §1

Setaria viridis [8] = test: as above; details: application rate 320 g/ha, scored after about 3 weeks
In short: as §1

Abutilon theophrasti [9] = test: as above; details: scored after about 3 weeks
In short: as §1

Hordeum murinum [10] = test: as above; details: application rate 320 g/ha
In short: as §1

Amaranthus retroflexus [11] = test: as above; details: scored after about 3 weeks
In short: as §1

Digitaria sanguinalis [12] = test: as above; details: application rate 80 g/ha
In short: as §1

Lolium rigidum [13] = test: as above; details: application rate 320 g/ha
In short: as §1

Veronica persica [14] = test: as above; details: application rate 320 g/ha
In short: as §1

Triticum aestivum = test: Crop compatibility post-emergence (greenhouse pot trial)
In short: (§2)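 Visual % damage vs untreated controls, ~3 wk post-spray (100% = plants died, 0% = as control). Plants in sandy loam, greenhouse, sprayed at one-leaf stage (2–3 wk after sowing); WP/EC in water + 0.5% additive, 600 L/ha.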

Oryza sativa [15] = test: as above
In short: as §2

Stellaria media [16] = test: Herbicidal action post-emergence (greenhouse pot trial); details: application rate 80 g/ha, scored visually after about 3 weeks vs untreated controls
In short: (§3)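 Post-emergence spray at one-leaf stage (2–3 wk after sowing, sandy loam, greenhouse); WP/EC in water + 0.5% additive; 600 L/ha; rate 80 g/ha or less. Visual % efficacy at ~3 wk vs untreated (100 = dead).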

Polygonum convolvulus = test: as above; details: scored visually after about 3 weeks vs untreated controls
In short: as §3

Echinochloa crus-galli [17] = test: as above; details: scored visually after about 3 weeks vs untreated controls
In short: as §3

Avena fatua [18] = test: as above; details: application rate 80 g/ha, scored visually after about 3 weeks vs untreated controls
In short: as §3

Alopecurus myosuroides [19] = test: as above; details: application rate 80 g/ha, scored visually after about 3 weeks vs untreated controls
In short: as §3

Matricaria inodora [20] = test: as above; details: scored visually after about 3 weeks vs untreated controls
In short: as §3

Pharbitis purpurea [21] = test: as above
In short: as §3

Viola tricolor [22] = test: as above
In short: as §3

Setaria viridis [23] = test: as above; details: scored visually after about 3 weeks vs untreated controls
In short: as §3

Abutilon theophrasti [24] = test: as above; details: scored visually after about 3 weeks vs untreated controls
In short: as §3

Hordeum murinum [25] = test: as above; details: application rate 80 g/ha, scored visually after about 3 weeks vs untreated controls
In short: as §3

Amaranthus retroflexus [26] = test: as above; details: scored visually after about 3 weeks vs untreated controls
In short: as §3

Digitaria sanguinalis [27] = test: as above; details: application rate 80 g/ha
In short: as §3

Lolium rigidum [28] = test: as above; details: application rate 80 g/ha, scored visually after about 3 weeks vs untreated controls
In short: as §3

Veronica persica [29] = test: as above
In short: as §3

Glycine max = test: Crop compatibility pre-emergence (greenhouse pot trial); details: application rate 20 g/ha, effect vs untreated controls
In short: (§4)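 Visual percentage scoring against untreated controls, about 3 weeks after treatment, gave the crop injury values (100% = plants died, 0% = like controls). Compounds, as wettable powders or emulsion concentrates, were sprayed onto covering soil over sown seeds at 600 L/ha water with 0.5% additive.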

Zea mays [30] = test: as above; details: effect vs untreated controls
In short: as §4

Cyperus esculentus = test: Herbicidal action pre-emergence (greenhouse pot trial); details: application rate 320 g/ha
In short: as §1

Zea mays [31] = test: Crop compatibility post-emergence (greenhouse pot trial)
In short: as §2

Oryza sativa [32] = test: Crop compatibility pre-emergence (greenhouse pot trial); details: application rate 80 g/ha, effect vs untreated controls
In short: as §4

Structure (SMILES): CCC(Sc1cc(-n2c(=O)cc(C(F)(F)F)n(C)c2=O)c(F)cc1Cl)C(=O)OCC1CCOC1 (stereo not drawn) [I.2-72, Tetrahydrofuran-3-ylmethyl 2-({2-chloro-4-fluoro-5-[3-methyl-2,6-dioxo-4-(trifluoromethyl)-3,6-dihydropyrimidin-1(2H)-yl]phenyl}sulfanyl)butanoate]
- Stellaria media (Efficacy in %) (Stellaria media [1]): 100%
- Echinochloa crus-galli (Efficacy in %) (Echinochloa crus-galli [2]): 100%
- Avena fatua (Efficacy in %) (Avena fatua [3]): 80%
- Alopecurus myosuroides (Efficacy in %) (Alopecurus myosuroides [4]): 100%
- Matricaria inodora (Efficacy in %) (Matricaria inodora [5]; application rate 320 g/ha): 100%
- Pharbitis purpurea (Efficacy in %) (Pharbitis purpurea [6]): 100%
- Viola tricolor (Efficacy in %) (Viola tricolor [7]): 100%
- Setaria viridis (Efficacy in %) (Setaria viridis [8]): 100%
- Abutilon theophrasti (Efficacy in %) (Abutilon theophrasti [9]; application rate 320 g/ha): 100%
- Hordeum murinum (Efficacy in %) (Hordeum murinum [10]): 90%
- Amaranthus retroflexus (Efficacy in %) (Amaranthus retroflexus [11]; application rate 320 g/ha): 100%
- Digitaria sanguinalis (Efficacy in %) (Digitaria sanguinalis [12]): 100%
- Lolium rigidum (Efficacy in %) (Lolium rigidum [13]): 90%
- Veronica persica (Efficacy in %) (Veronica persica [14]): 100%
- Triticum aestivum (Efficacy in %) (Triticum aestivum; application rate 80 g/ha): 20%
- Oryza sativa (Efficacy in %) (Oryza sativa [15]; application rate 5 g/ha): 20%
- Stellaria media (Efficacy in %) (Stellaria media [16]): 100%
- Polygonum convolvulus (Efficacy in %) (Polygonum convolvulus; application rate 80 g/ha): 100%
- Echinochloa crus-galli (Efficacy in %) (Echinochloa crus-galli [17]; application rate 80 g/ha): 100%
- Avena fatua (Efficacy in %) (Avena fatua [18]): 80%
- Alopecurus myosuroides (Efficacy in %) (Alopecurus myosuroides [19]): 90%
- Matricaria inodora (Efficacy in %) (Matricaria inodora [20]; application rate 80 g/ha): 100%
- Pharbitis purpurea (Efficacy in %) (Pharbitis purpurea [21]; application rate 80 g/ha): 100%
- Viola tricolor (Efficacy in %) (Viola tricolor [22]; application rate 80 g/ha): 100%
- Setaria viridis (Efficacy in %) (Setaria viridis [23]; application rate 80 g/ha): 100%
- Abutilon theophrasti (Efficacy in %) (Abutilon theophrasti [24]; application rate 80 g/ha): 100%
- Hordeum murinum (Efficacy in %) (Hordeum murinum [25]): 80%
- Amaranthus retroflexus (Efficacy in %) (Amaranthus retroflexus [26]; application rate 80 g/ha): 100%
- Digitaria sanguinalis (Efficacy in %) (Digitaria sanguinalis [27]): 100%
- Lolium rigidum (Efficacy in %) (Lolium rigidum [28]): 80%
- Veronica persica (Efficacy in %) (Veronica persica [29]; application rate 80 g/ha): 100%
- Glycine max (Efficacy in %) (Glycine max): 20%
- Zea mays (Efficacy in %) (Zea mays [30]; application rate 80 g/ha): 10%

Structure (SMILES): CC(Sc1cc(-n2c(=O)cc(C(F)(F)F)n(C)c2=O)c(F)cc1Cl)C(=O)NCC1CCCO1 (stereo not drawn) [I.1-221]
- Stellaria media (Efficacy in %) (Stellaria media [1]): 100%
- Echinochloa crus-galli (Efficacy in %) (Echinochloa crus-galli [2]): 100%
- Cyperus esculentus (Efficacy in %) (Cyperus esculentus): 100%
- Avena fatua (Efficacy in %) (Avena fatua [3]): 100%
- Alopecurus myosuroides (Efficacy in %) (Alopecurus myosuroides [4]): 90%
- Matricaria inodora (Efficacy in %) (Matricaria inodora [5]; application rate 320 g/ha): 100%
- Pharbitis purpurea (Efficacy in %) (Pharbitis purpurea [6]): 100%
- Viola tricolor (Efficacy in %) (Viola tricolor [7]): 100%
- Setaria viridis (Efficacy in %) (Setaria viridis [8]): 100%
- Abutilon theophrasti (Efficacy in %) (Abutilon theophrasti [9]; application rate 320 g/ha): 100%
- Hordeum murinum (Efficacy in %) (Hordeum murinum [10]): 100%
- Amaranthus retroflexus (Efficacy in %) (Amaranthus retroflexus [11]; application rate 320 g/ha): 100%
- Lolium rigidum (Efficacy in %) (Lolium rigidum [13]): 100%
- Zea mays (Efficacy in %) (Zea mays [31]; application rate 5 g/ha): 10%
- Triticum aestivum (Efficacy in %) (Triticum aestivum; application rate 20 g/ha): 20%
- Oryza sativa (Efficacy in %) (Oryza sativa [15]; application rate 20 g/ha): 0%
- Stellaria media (Efficacy in %) (Stellaria media [16]): 100%
- Polygonum convolvulus (Efficacy in %) (Polygonum convolvulus; application rate 80 g/ha): 100%
- Echinochloa crus-galli (Efficacy in %) (Echinochloa crus-galli [17]; application rate 80 g/ha): 100%
- Avena fatua (Efficacy in %) (Avena fatua [18]): 80%
- Alopecurus myosuroides (Efficacy in %) (Alopecurus myosuroides [19]): 90%
- Matricaria inodora (Efficacy in %) (Matricaria inodora [20]; application rate 80 g/ha): 100%
- Pharbitis purpurea (Efficacy in %) (Pharbitis purpurea [21]; application rate 80 g/ha): 100%
- Viola tricolor (Efficacy in %) (Viola tricolor [22]; application rate 80 g/ha): 100%
- Setaria viridis (Efficacy in %) (Setaria viridis [23]; application rate 80 g/ha): 100%
- Abutilon theophrasti (Efficacy in %) (Abutilon theophrasti [24]; application rate 80 g/ha): 100%
- Hordeum murinum (Efficacy in %) (Hordeum murinum [25]): 80%
- Amaranthus retroflexus (Efficacy in %) (Amaranthus retroflexus [26]; application rate 80 g/ha): 100%
- Lolium rigidum (Efficacy in %) (Lolium rigidum [28]): 90%
- Veronica persica (Efficacy in %) (Veronica persica [29]; application rate 80 g/ha): 100%
- Zea mays (Efficacy in %) (Zea mays [30]; application rate 20 g/ha): 0%

Structure (SMILES): CC(Sc1cc(-n2c(=O)cc(C(F)(F)F)n(C)c2=O)c(F)cc1Cl)C(=O)OCC1CCCOC1 (stereo not drawn) [I.1-92]
- Matricaria inodora (Efficacy in %) (Matricaria inodora [5]; application rate 80 g/ha): 100%
- Abutilon theophrasti (Efficacy in %) (Abutilon theophrasti [9]; application rate 80 g/ha): 100%
- Amaranthus retroflexus (Efficacy in %) (Amaranthus retroflexus [11]; application rate 80 g/ha): 100%
- Zea mays (Efficacy in %) (Zea mays [31]; application rate 20 g/ha): 20%
- Triticum aestivum (Efficacy in %) (Triticum aestivum; application rate 20 g/ha): 10%
- Oryza sativa (Efficacy in %) (Oryza sativa [15]; application rate 20 g/ha): 0%
- Polygonum convolvulus (Efficacy in %) (Polygonum convolvulus; application rate 20 g/ha): 100%
- Echinochloa crus-galli (Efficacy in %) (Echinochloa crus-galli [17]; application rate 20 g/ha): 100%
- Matricaria inodora (Efficacy in %) (Matricaria inodora [20]; application rate 20 g/ha): 80%
- Pharbitis purpurea (Efficacy in %) (Pharbitis purpurea [21]; application rate 20 g/ha): 100%
- Viola tricolor (Efficacy in %) (Viola tricolor [22]; application rate 20 g/ha): 100%
- Setaria viridis (Efficacy in %) (Setaria viridis [23]; application rate 20 g/ha): 100%
- Abutilon theophrasti (Efficacy in %) (Abutilon theophrasti [24]; application rate 20 g/ha): 100%
- Amaranthus retroflexus (Efficacy in %) (Amaranthus retroflexus [26]; application rate 20 g/ha): 100%
- Veronica persica (Efficacy in %) (Veronica persica [29]; application rate 20 g/ha): 100%
- Zea mays (Efficacy in %) (Zea mays [30]; application rate 80 g/ha): 0%
- Oryza sativa (Efficacy in %) (Oryza sativa [32]): 10%
